IC50 data for 29 molecules are collected here from patent US9346794B1, “Substituted 4-pyridones and their use as inhibitors of neutrophil elastase activity” (Boehringer Ingelheim International GmbH, priority 2012, dated 2016).

The structures appear in SMILES notation.

The experiment addresses Human neutrophil elastase (Homo sapiens (Human), UniProt P08246). The experiment in a line: Human Neutrophil Elastase Assay. It counts as biochemical. The following applies: substrate MeOSuc-Ala-Ala-Pro-Val-AMC 250 μM, fluorescence, pH 7.5. On the procedure:
Human Neutrophil Elastase Assay
All other materials were of the highest grade commercially available.
The following buffers were used: Compound buffer: 100 mM Tris, 500 mM NaCl, adjusted to pH 7.5; Assay buffer: 100 mM Tris, 500 mM NaCl, adjusted to pH 7.5, containing 0.01% BSA.
Assay conditions: Test compounds were prediluted in DMSO and subsequently in compound buffer (5% DMSO final). […] After inactivation of the enzyme, fluorescence intensities were measured at 380 nm excitation and 460 nm emission wavelengths.
Each plate contains wells with a high value control (DMSO+enzyme+substrate) and wells with a low value control (DMSO+inactivated enzyme+substrate). IC50 values were estimated using a sigmoidal concentration response curve with variable slope. Means of low values were taken as 0%, means of high values as 100%. IC50 values of selected compound in the Neutrophil Elastase assay: […]

Human neutrophil elastase, sequence (P08246 30-247): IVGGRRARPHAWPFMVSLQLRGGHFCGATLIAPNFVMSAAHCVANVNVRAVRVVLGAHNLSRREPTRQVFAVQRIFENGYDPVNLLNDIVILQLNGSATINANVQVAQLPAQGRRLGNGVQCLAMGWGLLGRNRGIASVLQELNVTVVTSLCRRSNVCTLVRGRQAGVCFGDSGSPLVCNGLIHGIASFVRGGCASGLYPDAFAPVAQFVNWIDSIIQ

In turn, `Cc1c(-c2cccc(C(F)(F)F)c2)c(=O)c(C(=O)NCc2ccc(S(C)(=O)=NC#N)cc2)cn1-c1ccnn1C` (single isomer, unassigned) [Example 47] yielded an IC50 of 1.2 nM.

As to `Cc1c(-c2cccc(C(F)(F)F)c2)c(=O)c(C(=O)NCc2ccc(S(C)(=O)=NC#N)cc2)cn1-c1ccccc1` (single isomer, unassigned) [Example 24], the IC50 stood at 5.5 nM.

In the case of `Cc1c(-c2cccc(C(F)(F)F)c2)c(=O)c(C(=O)NCc2ccc(S(C)(=O)=NC#N)cc2)cn1-c1ccnn1C` (centres unmarked) [Example 8, 6-Methyl-1-(2-methyl-2H-pyrazol-3-yl)-4-oxo-5-(3-trifluoromethyl-phenyl)-1,4-dihydro-pyridine-3-carboxylic acid 4-(N-cyano-S-methylsulfonimidoyl)-benzylamide], the IC50 came out at 2.4 nM.

Molecule `Cc1c(-c2cccc(C(F)F)c2)c(=O)c(C(=O)NCc2ccc(S(C)(=O)=NC#N)cc2F)cn1C(C)C` (centres unmarked) [Example 33] displayed an IC50 of 2.5 nM.

In turn, `Cc1c(-c2cccc(C(F)F)c2)c(=O)c(C(=O)NCc2ccc(S(C)(=O)=NC#N)cc2)cn1-c1ccnn1C` (centres unmarked) [Example 7, 5-(3-Difluoromethyl-phenyl)-6-methyl-1-(2-methyl-2H-pyrazol-3-yl)-4-oxo-1,4-dihydro-pyridine-3-carboxylic acid 4-(N-cyano-S-methylsulfonimidoyl)-benzylamide] registered an IC50 of 2.1 nM.

`Cc1c(-c2cccc(C(F)(F)F)c2)c(=O)c(C(=O)NCc2ccc(S(C)(=O)=NC#N)cc2F)cn1C(C)C` (centres unmarked) [Example 14] returned an IC50 of 1.5 nM.

In the case of `CCn1cc(C(=O)NCc2ccc(S(C)(=O)=NC#N)cc2)c(=O)c(-c2cccc(C(F)F)c2)c1C` (centres unmarked) [Example 5, 5-(3-Difluoromethyl-phenyl)-1-ethyl-6-methyl-4-oxo-1,4-dihydro-pyridine-3-carboxylic acid 4-(N-cyano-S-methylsulfonimidoyl)-benzylamide], 2.5 nM corresponded to half-maximal inhibition (IC50).

As for `Cc1c(-c2cccc(C(F)(F)F)c2)c(=O)c(C(=O)NCc2ccc(S(C)(=O)=NC#N)c(F)c2)cn1C(C)C` (centres unmarked) [Example 13], the half-maximal inhibitory concentration (IC50) came to 2.4 nM.

`CCn1cc(C(=O)NCc2ccc(S(=O)(=NC#N)C(C)C)cc2)c(=O)c(-c2cccc(C(F)(F)F)c2)c1C` (centres unmarked) [Example 11]: the IC50 is less than 1 nM.

In the case of `CN=S(C)(=O)c1ccc(CNC(=O)c2cn(C(C)C)c(C)c(-c3cccc(C(F)(F)F)c3)c2=O)cc1` (centres unmarked) [Example 67, 1-Isopropyl-6-methyl-4-oxo-5-(3-trifluoromethyl-phenyl)-1,4-dihydro-pyridine-3-carboxylic acid 4-(N,S-dimethylsulfonimidoyl)-benzylamide], the IC50 stood at 49.3 nM.

`CCn1cc(C(=O)NCc2ccc(S(C)(=O)=NC#N)cc2)c(=O)c(-c2cccc(C(F)(F)F)c2)c1C` (single isomer, unassigned) [Example 4A, 1-Ethyl-6-methyl-4-oxo-5-(3-trifluoromethyl-phenyl)-1,4-dihydro-pyridine-3-carboxylic acid 4-(N-cyano-S-methylsulfonimidoyl)-benzylamide] had an IC50 of 4.1 nM.

In the case of `CN=S(=O)(c1ccc(CNC(=O)c2cn(C(C)C)c(C)c(-c3cccc(C(F)(F)F)c3)c2=O)cc1)N(C)C` (centres unmarked) [Example 60, 5-(3-Trifluoromethyl-phenyl)-1-isopropyl-6-methyl-4-oxo-1,4-dihydro-pyridine-3-carboxylic acid 4-(N,N,N′-trimethylsulfamimidoyl)-benzylamide], half-maximal inhibition (IC50) was put at 22 nM.

On to `Cc1c(-c2ccnc(C(F)(F)F)c2)c(=O)c(C(=O)NCc2ccc(S(C)(=O)=NC#N)cc2)cn1-c1ccncc1` (single isomer, unassigned) [Example 46], for which the midpoint of inhibition, the IC50, lay at 11.7 nM.

The molecule `CCn1cc(C(=O)NCc2ccc(S(=O)(=NC#N)C(C)C)cc2)c(=O)c(-c2cccc(C(F)F)c2)c1C` (centres unmarked) [Example 30] yielded a half-inhibitory concentration (IC50) of less than 1 nM.

In the case of `Cc1cc(S(C)(=O)=NC#N)ccc1CNC(=O)c1cn(C(C)C)c(C)c(-c2cccc(C(F)(F)F)c2)c1=O` (centres unmarked) [Example 15], the IC50 amounted to 2.2 nM.

`CCn1cc(C(=O)NCc2ccc(S(=O)(CC)=NC#N)cc2)c(=O)c(-c2cccc(C(F)(F)F)c2)c1C` (single isomer, unassigned) [Example 10B] returned an IC50 of 1.2 nM.

In turn, `CCn1cc(C(=O)NCc2ccc(S(=O)(CC)=NC#N)cc2)c(=O)c(-c2cccc(C(F)(F)F)c2)c1C` (single isomer, unassigned) [Example 10A] showed an IC50 of 2.7 nM.

As for `Cc1c(-c2cccc(C(F)(F)F)c2)c(=O)c(C(=O)NCc2ccc(S(C)(=O)=NS(C)(=O)=O)cc2)cn1C(C)C` (centres unmarked) [Example 17], the IC50 was 7.3 nM.

For `Cc1c(-c2cccc(C(F)(F)F)c2)c(=O)c(C(=O)NCc2ccc(S(=O)(=NC#N)C(C)C)cc2)cn1C1CC1` (single isomer, unassigned) [Example 22B], 1.2 nM corresponded to half-maximal inhibition (IC50).

`Cc1c(-c2ccnc(C(F)(F)F)c2)c(=O)c(C(=O)NCc2ccc(S(C)(=O)=NC#N)cc2)cn1-c1ccccn1` (single isomer, unassigned) [Example 44] registered an IC50 of 14.9 nM.

For `Cc1c(-c2ccc(F)c(C(F)F)c2)c(=O)c(C(=O)NCc2ccc(S(C)(=O)=NC#N)cc2)cn1C(C)C` (single isomer, unassigned) [Example 42], the 50% inhibitory concentration (IC50) stood at 4.7 nM.

`Cc1c(-c2ccnc(C(F)(F)F)c2)c(=O)c(C(=O)NCc2ccc(S(C)(=O)=NC#N)cc2)cn1C(C)C` (single isomer, unassigned) [Example 3A, 1-Isopropyl-2-methyl-4-oxo-2′-trifluoromethyl-1,4-dihydro-[3,4′]-bipyridinyl-5-carboxylic acid 4-(N-cyano-S-methylsulfonimidoyl)-benzylamide] had an IC50 of 12 nM.

With `Cc1ccncc1-n1cc(C(=O)NCc2ccc(S(C)(=O)=NC#N)cc2)c(=O)c(-c2cccc(C(F)(F)F)c2)c1C` (centres unmarked) [Example 57], the midpoint of inhibition, the IC50, lay at 1.7 nM.

`Cc1cc(S(C)(=O)=NC#N)ccc1CNC(=O)c1cn(C(C)C)c(C)c(-c2cccc(C(F)F)c2)c1=O` (centres unmarked) [Example 34] displayed a concentration for half-maximal inhibition (IC50) of 2.4 nM.

The molecule `Cc1c(-c2cccc(C(F)(F)F)c2)c(=O)c(C(=O)NCc2ccc(S(C)(=O)=NC#N)cc2)cn1C1CCCOC1` (centres unmarked) [Example 55] had an IC50 of 1.8 nM.

`Cc1c(-c2cccc(C(F)(F)F)c2)c(=O)c(C(=O)NCc2ccc(S(C)(=O)=NC#N)cc2)cn1-c1ccccn1` (single isomer, unassigned) [Example 25] gave a half-maximal inhibitory concentration (IC50) of 4.3 nM.

In turn, `Cc1c(-c2cccc(C(F)(F)F)c2)c(=O)c(C(=O)NCc2ccc(S(=O)(=NC#N)C3CC3)cc2)cn1C(C)C` (centres unmarked) [Example 63, 1-Isopropyl-6-methyl-4-oxo-5-(3-trifluoromethyl-phenyl)-1,4-dihydro-pyridine-3-carboxylic acid 4-(S-cyclopropyl-N-cyanosulfonimidoyl)-benzylamide] gave an IC50 of 1.4 nM.

As to `CCS(=O)(=NC#N)c1ccc(CNC(=O)c2cn(-c3ccnn3C)c(C)c(-c3cccc(C(F)(F)F)c3)c2=O)cc1` (centres unmarked) [Example 18], the IC50 was 1.5 nM.

In the case of `CCn1cc(C(=O)NCc2ccc(S(C)(=O)=NC#N)cc2)c(=O)c(-c2cccc(C(F)(F)F)c2)c1C` (single isomer, unassigned) [Example 4B, 1-Ethyl-6-methyl-4-oxo-5-(3-trifluoromethyl-phenyl)-1,4-dihydro-pyridine-3-carboxylic acid 4-(N-cyano-S-methylsulfonimidoyl)-benzylamide], the half-maximal inhibitory concentration (IC50) turned out to be 1.6 nM.
